# According to EP0831877B1, “METABOLIC EFFECTS OF CERTAIN GLUTATHIONE ANALOGS” (TELIK, INC., priority 1995, dated 1996):
# “And” between values parts separate entries of the source, which are not always exact repeats. Identical values can stand only once.
# What was measured:
# [1] = system: HT-29 (human colon adenocarcinoma) cells; test: modified clonogenic assay, potentiation of chlorambucil cytotoxicity; format: cell-based; settings: chlorambucil, mean ±S.D. of 2-3 experiments; for DMF (dose modification factor), Diethyl ester: HT-29, dose tested 12.5 µM
# Method: HT-29 (human colon adenocarcinoma) cells were obtained from Dr. Roberto Ceriani (Cancer Research Fund of Contra Costa County, Walnut Creek, CA) and were used in log phase of growth unless otherwise specified. Chlorambucil (CMB) was obtained from Sigma (St. Louis, MO) and was dissolved in 100% ethanol. All GST inhibitors were dissolved in ethanol, DMSO, or water just prior to use. The same amount of solvent added to culture medium served as the vehicle control.
# In a modified clonogenic assay for cytotoxicity, cells were suspended at 2 x 10^5 cells/ml in serum-free medium in the presence of vehicle or inhibitor. […] Cells were incubated for 2 hours, then varying doses of CMB were added. At the end of a second 2-hour incubation, cells were diluted to 7.5-10 x 10^3/ml in serum-containing medium and plated in quadruplicate at 200 µl/well in Microtest III microtiter plates.
# Plates were incubated for 6 days and assayed by a modified methylene blue method. Briefly, cells were fixed with 1.25% glutaraldehyde in PBS then stained with 0.05% methylene blue in distilled water. Plates were washed several times in distilled water to remove unretained dye and retained dye was resolubilized in 0.03 N HCl. Plates were read at 650 nm in a Molecular Devices Vmax plate reader (Molecular Devices, Redwood City, CA). […] A dose modification factor (DMF), a measure of potentiation of cytotoxicity, was calculated for each inhibitor by dividing the IC50 value of CMB without inhibitor treatment by the IC50 value for CMB with inhibitor treatment.
# [2] = system: bone marrow GM-CFU; test: cyclophosphamide-induced GM-CFU suppression in mice; format: in vivo
# [3] = system: CD34^+++ cells from human cord blood or bone marrow; test: CD34+++ cell differentiation in the presence of cytokines; format: cell-based; settings: 0.1 µM-10 µM TER199, erythropoietin 1 unit/ml, IL-3 100 unit/ml
# [4] = system: HT-29 cells; test: Cytosensor Microphysiometer acidification rates; format: cell-based, human; settings: 4 hours pretreatment, TER199 20 µM, ethacrynic acid 50 µM
# Method: The metabolic effects related to toxicity of the compounds of the invention on HT-29 cells, were tested using a Cytosensor Microphysiometer made by Molecular Devices, Inc., Menlo Park, CA and described in McConnell, H.M. et al. Science (1992) 257:1906-1912 and by Wada, H.G. et al. AATEX (1992) 1:154-164. Changes in pH of the culture medium are measured as a function of cellular metabolism. Acidification rates of the small volume of liquid flowing over the cells correlate with the number of live cells in the reaction chamber; a reduction of acidification rate reflects reduced numbers of surviving cells. […] The medium was then replaced with serum-free low buffer capacity medium and Microphysiometer analysis was initiated.
# [5] = system: peripheral blood cells; test: effect on peripheral blood counts in rats; settings: 90 mg/kg/day x 5, i.p.
# From the text: Rats were divided into two groups and each group was bled on alternating days. Mean total leukocyte, absolute lymphocyte and absolute neutrophil counts increased over the study period.
# [6] = system: SKOV-3 an ovarian carcinoma; test: standard clonogenic assay, potentiation of drug toxicity, SKOV-3; format: cell-based; settings: test dose not given
# Method: ; SKOV-3 an ovarian carcinoma, and VLB, a vinblastine-resistant variant of SKOV-3. Four chemotherapeutic drugs, chlorambucil, adriamycin, mitomycin C and doxorubicin were used as the toxic agents. In these assays, the cells were seeded at 300 cells/well in 2 ml of medium in 6-well plates in the presence of the compounds used in the invention as the diethyl esters. […]. After incubation for 1-2 hours to permit cells to attach, varying doses of the chemotherapeutic agents were added. At least three replicate wells were plated for each test condition and the plates were incubated for two weeks. Colonies were fixed in 95% ethanol and stained with crystal violet for colony counting. IC50 values were determined for the chemotherapeutic agent in the presence or absence of the compound used in the invention and dose modification factors were calculated by dividing the IC50 value of drug without the compound by the IC50 value of the drug with the compound.
# [7] = system: normal BDF1 mouse bone marrow multipotential (CFU-GEMM) progenitor cells; test: colony formation, mouse bone marrow CFU-GEMM; format: cell-based; settings: EPO + 50 ng/ml SLF
# Method: (§1) The effects are dose-dependent, usually in the range of 1.0 to 10.0 µM, and in most cases for cells stimulated by GM-CSF, G-CSF, M-CSF, Flt3/Flk-2 and Steel factor (stem cell factor/c-kit ligand). Of particular interest was the finding that TER199 enhances colony formation stimulated by combinations of cytokines. Additionally, the enhancing effect is more pronounced in human than in murine bone marrow.
# [8] = system: normal human bone marrow erythroid (BFU-E) progenitor cells; test: colony formation, human bone marrow BFU-E; format: cell-based
# Method: as §1
# [9] = system: bone marrow GM-CFU; test: 5-fluorouracil-induced GM-CFU suppression in mice; settings: for GM-CFU: harvest 48 hours after 5-FU
# Method: The control group was not treated with either drug. Bone marrows were harvested and GM-CFUs were determined 24 hours after the final injection.
# Values are the mean ± SE of three mice per point.
# [10] = system: normal BDF1 mouse bone marrow erythroid (BFU-E) progenitor cells; test: colony formation, mouse bone marrow BFU-E; format: cell-based
# Method: as §1
# [11] = system: peripheral blood cells; test: peripheral blood response to 5-FU with i.p. TER199 in rats; format: in vivo, Sprague-Dawley derived rats; settings: 5-FU 150 mg/kg i.p. day one
# Method: Sprague-Dawley derived rats were treated according to the schedule below (Table 11).
# [12] = in vitro half-life in human blood; format: in vitro ADME
# [13] = EPO + 50 ng/ml SLF, TER199 0.1 µM
# [14] = EPO + 50 ng/ml SLF, TER199 1.0 µM
# [15] = EPO + 50 ng/ml SLF, TER199 10 µM
# [16] = TER199 60 mg/kg b.i.d. or 120 mg/kg q.d. i.p. day 2-10
structure (smiles),measurement,setting,value
"CCOC(=O)[C@@H](N)CCC(=O)N[C@@H](CSCc1ccccc1)C(=O)N[C@@H](C(=O)OCC)c1ccccc1 [TER199, γE ethyl ester-C(Bz)-R-(-)-ϕG ethyl ester]","DMF (dose modification factor), Diethyl ester",[1],1.65
same,"DMF (dose modification factor), Diethyl ester",[1]; listed as γE-C(Bz)-ϕG diethyl ester,1.65 ± 0.04
same,DMF of DEE,[1]; diethyl ester,1.651
same,"cyclophosphamide-induced GM-CFU suppression (Figure 13, panel A)","[2]; TER199 120 mg/kg, i.p. 24 hours after cyclophosphamide 200 mg/kg, i.p.",reduces GM-CFU suppression
same,"cyclophosphamide-induced GM-CFU suppression (Figure 13, panel B)","[2]; TER199 150 mg/kg, p.o.",similarly effective
same,BFU-E (Figure 16),[3],modest positive effects
same,CFU-GEMM colony formation (Figure 16),[3]; steel factor 50 ng/ml,modest positive effects
same,"effect on acidification rates, compound alone (Figure 2)",[4]; no chlorambucil,Neither γE-C(Bz)-ϕG diethylester (TER199) nor ethacrynic acid alone had any appreciable effect
same,effect of pretreatment on acidification rates with chlorambucil (Figure 2),[4]; then 100 µM chlorambucil,potentiated the effect of chlorambucil
same,deleterious effects on the animals,[5],did not appear to have any deleterious effects
same,levels of circulating white blood cells,[5],twofold increase
same,red blood cell or platelet counts,[5]; exception: mean decrease in platelet count on day 9,no significant change
same,DMF for Adriamycin,[6],1.14
same,DMF for Chlorambucil,[6],1.24
same,DMF for Doxorubicin,[6],1.14
same,% change from control,[7]; TER199 0.1 µM,0%
same,Colony number,[7]; TER199 0.1 µM,2±1
same,% change from control,[7]; TER199 10 µM,0%
same,Colony number,[7]; TER199 10 µM,2±1
same,Colony number,"[8]; EPO 1 U/ml, TER199 0.1 µM",35±3 and 38±3
same,Colony number,"[8]; EPO 1 U/ml, TER199 1.0 µM",60±2 and 58±1
same,Colony number,"[8]; EPO 1 U/ml, TER199 10 µM",57±4 and 59±2
same,Colony number,[8]; [13],92±4 and 80±5
same,% change from control,[8]; [14],22% and 35%
same,Colony number,[8]; [14],107±7 and 80±3
same,% change from control,[8]; [15],24% and 29%
same,Colony number,[8]; [15],109±2 and 85±3
same,GM-CFU counts per femur,[9]; 60 mg/kg TER199 IP 24 hours after 75 mg/kg 5-FU IP,greater than control values
same,number of GM-CFUs per femur compared with fluorouracil alone,[9]; 60 mg/kg TER199 IP simultaneously with 75 mg/kg 5-FU IP,fourfold increase
same,GM-CFU,[9]; TER199 150 mg/kg p.o. 24 hours after 5-FU 75 mg/kg i.p.,90 % of control
same,GM-CFU,[9]; TER199 150 mg/kg p.o. 24 hours after 5-FU 150 mg/kg i.p.,71 % of control
same,GM-CFU by day 4 after 5-FU administration (Figure 9b),[9]; TER199 IP 24 hours after 5-FU,about twice that of control
same,effect on GM-CFU (Figure 9c),[9]; TER199 i.p. 24 hours prior to 5-FU,essentially no effect
same,% change from control,"[10]; EPO 1 U/ml, TER199 0.1 µM",0%
same,Colony number,"[10]; EPO 1 U/ml, TER199 0.1 µM",2±1 and 4±1
same,Colony number,"[10]; EPO 1 U/ml, TER199 1.0 µM",2±1 and 3±1
same,% change from control,"[10]; EPO 1 U/ml, TER199 10 µM",0%
same,Colony number,"[10]; EPO 1 U/ml, TER199 10 µM",2±1 and 4±1
same,Colony number,[10]; [13],8±1 and 9±1
same,Colony number,[10]; [14],8±1 and 9±1
same,Colony number,[10]; [15],8±1 and 9±1
same,platelet levels (Figure 14),[11]; [16],recovered to normal levels by study Day 12
same,"white blood cell, neutrophil, and lymphocyte levels (Figure 14)",[11]; [16],reached pretest levels sooner than the 5-FU-treated group
same,red blood cell counts (Figure 14),"[11]; TER199 i.p. day 2-10, compared to 5-FU control animals",observed decrease is reduced
same,half-life,[12],~1.5 h
same,"half-life, comparison of the three compounds",[12],approximately the same
